Legend:
wild-type tomato = test: Fruition rate of wild-type tomato according to blooming period of treatment; assay type: in vivo; details: 1 mM
Description: To test the effect of a style-specific RNase inhibitor in a practical cultivating environment, the style-specific RNase of the present invention was treated to the wild-type tomato that was cultivated in a greenhouse for research (located in Taegu Catholic University, Kyungsan city, Kyungsangpukdo, Republic of korea). In the present invention, the experiment was performed under the environmental condition that can keep the wild-type tomato, a representative plant having gametophytic self-incompatibility, a single species genetically.
To determine the treatment period of a style-specific RNase inhibitor, the inhibitor was treated at the early blooming period (budding formation period˜prior to fill blooming), the middle blooming period (full blooming) and the late blooming period (1 day after full blooming˜falling period of petal) respectively. The inhibitors, ZnSO4 and CuSO4 were then added with 1 mM (about 288 ppm) and 1 mM (about 250 ppm) respectively at 9˜11 a.m., when pollination of plant occurs most actively. Fruition rate was investigated, and the results of 4 times repeated experiments for 25 blooming periods (reproductive organ containing a stamen, a stigma, a petal, etc.) in each experiment were shown in Table 3 with the statistic value.

[1] = test system: wild-type tomato and Fuji apple; assay type: in vivo; details: for the highest concentration not showing harmful effects of a medicine: in vivo; for the lowest concentration showing inhibiting effect: treated at the early blooming period
Description: Moreover, to investigate preferable concentration of treatment of the regulation composition for gametophytic self-incompatibility of the present invention, […] ppm CuSO4 and ZnSO4 were treated to wild-type tomato and Fuji apple at the early blooming period and the harmful effects of a medicine and fruition rates were investigated (see FIGS. 6 and 7). Since absorption rate of the regulation composition for gametophytic self-incompatibility of the present invention can be increased by treating it with a spreader in cultivating fruit trees, the CuSO4 and ZnSO4 were treated with a spreader by a method of spraying on the fruit trees at a specific period, that is, the early blooming period. Thus, it was shown that fruits and plants that are pollinated by self-pollen could be acquired by the treatment of a specific concentration of CuSO4 and ZnSO4 in wild-type tomato and Fuji apple without harmful effects of the medicine. From the results, it can be concluded that an inhibitor composition of a style-specific RNase of the present invention is effective in inhibition of a style-specific RNase without respect to species, and preferable concentration of CuSO4, which is treated at the early blooming period, is at 100˜700 ppm and preferable concentration of ZnSO4 is at 100˜800 ppm. Furthermore, very high pollination rate, without harmful effects of a medicine, could be achieved by spraying the inhibitor composition for gametophytic self-incompatibility of the present invention, which was mixed with the desirable amount of spreader according to the manufacturers' instruction. Among the spreaders, the spreader of hexaconazole class, siloxane class and alkylaryl polyethoxylate class is preferable to achieve high fruition rate. The preferable concentration of the inhibitor composition for gametophytic self-incompatibility of the present invention was shown in table 1. When CuSO4 is used as an effective component of the style-specific RNase inhibitor as shown in the table 1, if the concentration of CuSO4 is below 100 ppm, it is difficult to achieve a stable fruition rate over 70% because it cannot inhibit RNase activity appropriately, on the other hand, if the concentration of CuSO4 is over 700 ppm, it is not economical because it can induce harmful effects of a medicine. Furthermore, when ZnSO4 is used as an effective component of the style-specific RNase inhibitor, if the concentration of ZnSO4 is below 100 ppm, it is difficult to achieve a stable fruition rate over 70% because it cannot inhibit RNase activity appropriately, on the other hand, if the concentration of ZnSO4 is over 800 ppm, it is not economical because it can induce harmful effects of a medicine.

the highest concentration not showing harmful effects of a medicine [1] [ppm] | SMILES | Fruition rate (wild-type tomato; 1 day after full blooming) | Fruition rate (wild-type tomato; 1 day before blooming) | Fruition rate (wild-type tomato; 2 days after full blooming) | Fruition rate (wild-type tomato; 2 days before blooming) | Fruition rate (wild-type tomato; 3 days before blooming) [%] | Fruition rate (wild-type tomato; 4 days before blooming) [%] | Fruition rate (wild-type tomato; 5 days before blooming) [%] | Fruition rate (wild-type tomato; 6 days before blooming) [%] | Fruition rate (wild-type tomato; 7 days before blooming) [%] | Fruition rate (wild-type tomato; full blooming) | the lowest concentration showing inhibiting effect [1] [ppm]
800 | O=S(=O)([O-])[O-].[Zn+2] [ZnSO4] | 0 | 0 | 0 | 0 | >30 | >71 | >83 | >90 | >92 | 0 | 100
700 | O=S(=O)([O-])[O-].[Cu+2] [CuSO4] | 0 | 0 | 0 | 0 | >37 | >74 | >86 | >91 | >91 | 0 | 100

— US6723680B2, “Composition for regulation of gametophytic self-incompatibility, control method of gametophytic self-incompatibility of a plant and the plant self-pollinated by using said control method” (Istech Co., Ltd., priority 2000, dated 2004)
